# Legend:
# [1] = tested on: Stat5a/b; assay: Constitutive Stat5a/b phosphorylation in K562 cells (Western blot); format: cell-based, human
# Protocol: Exponentially growing K562 cells were treated with 5 μM Compound 1, Compound 2 or control for 3 h after which the cells were harvested. Cell pellets were solubilized in lysis buffer [10 mM Tris-HCl (pH 7.6), 5 mM EDTA, 50 mM sodium chloride, 30 mM sodium pyrophosphate, 50 mM sodium fluoride, 1 mM sodium orthovanadate, 1% Triton X-100, 1 mM phenylmethylsulfonyl fluoride, 5 μg/mlaprotinin, 1 μg/ml pepstatin A, and 2 μg/ml leupeptin], rotated end-over-end at 4° C. for 60 min, and insoluble material was pelleted at 12,000×g for 30 min at 4° C. The protein concentrations of clarified cell lysates were determined by simplified Bradford method (Bio-Rad Laboratories, Hercules, Calif.). Western blotting of the lysates was carried out using, as primary antibodies, the following antibodies at the following concentrations: anti-phosphotyrosine-Stat5a/b (Y694/Y699) mAb (1 μg/ml, Advantex BioReagents, Conroe, Tex.) or anti-Stat5ab mAb (1:250; BD Biosciences, San Jose, Calif.), anti-human Abl mAb (Calbiochem).
# Exponentially growing K562 cells were treated with NBPP for 3 h or 6 h after which the cells were harvested. Exponentially growing K562 cells or imatinib-resistant K562 cells were treated with NBPP for 6 h or 16 h after which the cells were harvested. Cell pellets were solubilized in lysis buffer [10 mM Tris-HCl (pH 7.6), 5 mM EDTA, 50 mM sodium chloride, 30 mM sodium pyrophosphate, 50 mM sodium fluoride, 1 mM sodium orthovanadate, 1% Triton X-100, 1 mM phenylmethylsulfonyl fluoride, 5 μg/ml aprotinin, 1 μg/ml pepstatin A, and 2 μg/ml leupeptin], rotated end-over-end at 4° C. for 60 min, and insoluble material was pelleted at 12,000×g for 30 min at 4° C. The protein concentrations of clarified cell lysates were determined by simplified Bradford method (Bio-Rad Laboratories, Hercules, Calif.). […]
# [2] = tested on: KCL22R imatinib-resistant human chronic myeloid leukemia cells; assay: Cell viability, MTS assay, KCL22R imatinib-resistant chronic myeloid leukemia cells; format: cell-based; conditions: 72 h, 3.1, 6.3, 12.5, 25 and 50 μM, vs control compound C5
# Protocol: Exponentially growing KCL22R imatinib-resistant human chronic myeloid leukemia cells were treated with Compound 1, Compound 2 or the control compound C5 for 72 h at 3.1, 6.3. 12.5, 25 and 50 μM concentrations. The cell viability was assessed by MTS (3-(4,5-dimethylthiazolyl-2)-2,5-diphenyl-tetrazolium bromide) metabolic activity assay (CellTiter 96® AQueous Assay kit).
# (§1) Exponentially growing CWR22Rv1 prostate cancer cells, K562 leukemia cells and imatinib-sensitive KCL22S and imatinib-resistant KCL22R chronic myeloid leukemia cells were treated with NBPP or the control compound C5 for 72 h at 3.1, 6.3. 12.5, 25 and 50 μM concentrations. The cell viability was assessed by MTS (3-(4,5-dimethylthiazolyl-2)-2,5-diphenyl-tetrazolium bromide) metabolic activity assay (CellTiter 96® AQueous Assay kit).
# [3] = tested on: K562 human chronic myeloid leukemia cells; assay: Cell viability, MTS assay, K562 chronic myeloid leukemia cells; format: cell-based; conditions: K562, 72 h, 3.1, 6.3, 12.5, 25 and 50 μM, vs control compound C5
# Protocol: Exponentially growing K562 human chronic myeloid leukemia cells were treated with Compound 1, Compound 2 or the control compound C5 for 72 h at 3.1, 6.3. 12.5, 25 and 50 μM concentrations. The cell viability was assessed by MTS (3-(4,5-dimethylthiazolyl-2)-2,5-diphenyl-tetrazolium bromide) metabolic activity assay (CellTiter 96® AQueous Assay kit).
# as §1
SMILES,"effect on phosphorylation of Stat5 ([1]; K562, 5 μM, 3 h)",number of viable cells [2],number of viable cells [3],"effect on phosphorylation of Stat5 ([1]; K562, indicated concentrations, 3 or 6 hours)"
"OC[C@H]1O[C@@H](n2cnc3c(NNc4ccccc4)ncnc32)[C@H](O)[C@@H]1O [Compound 2, (2R,3S,4R,5R)-2-(hydroxymethyl)-5-(6-(2-phenylhydrazinyl)-9H-purin-9-yl)tetrahydrofuran-3,4-diol]",block phosphorylation of Stat5,decreased the number of viable leukemic cancer cells compared to the control compound,decreased the number of viable leukemic cells compared to the control compound,
"OC[C@H]1O[C@@H](n2ccc3c(NCc4ccccc4)ncnc32)[C@H](O)[C@@H]1O [NBPP, N-(phenylmethyl)-7-β-D-ribofuranosyl-7H-pyrrolo[2,3-d]pyrimidin-4-amine]",,decreased the number of viable KCL22R cells,decreased the number of viable K562 cells,inhibited phosphorylation of Stat5
"OC[C@H]1O[C@@H](n2cnc3c(N4CCc5ccccc5C4)ncnc32)[C@H](O)[C@@H]1O [Compound 1, (2R,3R,4S,5R)-2-(6-(3,4-Dihydroisoquinolin-2(1H)-yl)-9H-purin-9-yl)-5-(hydroxymethyl)tetrahydrofuran-3,4-diol]",block phosphorylation of Stat5,decreased the number of viable leukemic cancer cells compared to the control compound,decreased the number of viable leukemic cells compared to the control compound,

# Reference: US20150209379A1, “TREATMENT OF PROSTATE CANCER AND HEMATOLOGIC NEOPLASMS” (THOMAS JEFFERSON UNIVERSITY, priority 2012, published 2015)
